Results reported in ChEMBL document CHEMBL1133225.
The source made the active and inactive calls. No cut-off for these calls is given here.

Assays:
[1] = target: T1, Acetylcholinesterase (Mus musculus) (UniProt P21836); experiment: Compound was tested against recombinant mouse Acetylcholinesterase; 5-40 uM, Modest inhibition
T1 sequence (whole entry): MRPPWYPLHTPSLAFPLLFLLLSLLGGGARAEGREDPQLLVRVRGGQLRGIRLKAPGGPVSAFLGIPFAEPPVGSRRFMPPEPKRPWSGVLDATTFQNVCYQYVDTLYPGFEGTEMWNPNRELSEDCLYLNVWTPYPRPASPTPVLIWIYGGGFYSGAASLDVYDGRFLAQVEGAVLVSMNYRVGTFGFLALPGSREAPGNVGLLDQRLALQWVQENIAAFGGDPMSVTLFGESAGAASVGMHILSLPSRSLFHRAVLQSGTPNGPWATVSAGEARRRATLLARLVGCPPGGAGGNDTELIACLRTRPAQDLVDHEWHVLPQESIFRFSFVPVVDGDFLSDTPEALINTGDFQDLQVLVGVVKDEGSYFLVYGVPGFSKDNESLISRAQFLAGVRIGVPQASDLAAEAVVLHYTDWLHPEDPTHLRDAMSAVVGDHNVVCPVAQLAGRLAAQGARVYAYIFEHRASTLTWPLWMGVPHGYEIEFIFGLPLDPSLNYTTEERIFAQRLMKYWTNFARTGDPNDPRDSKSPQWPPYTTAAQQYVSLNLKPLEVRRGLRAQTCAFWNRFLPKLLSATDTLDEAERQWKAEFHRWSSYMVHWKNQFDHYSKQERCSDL

[2] = target: Acetylcholinesterase (Electrophorus electricus) (UniProt O42275); experiment: Compound was tested against electric eel Acetylcholinesterase; Inactive
Chain of Acetylcholinesterase (Electrophorus electricus) (O42275 24-633 limits assumed): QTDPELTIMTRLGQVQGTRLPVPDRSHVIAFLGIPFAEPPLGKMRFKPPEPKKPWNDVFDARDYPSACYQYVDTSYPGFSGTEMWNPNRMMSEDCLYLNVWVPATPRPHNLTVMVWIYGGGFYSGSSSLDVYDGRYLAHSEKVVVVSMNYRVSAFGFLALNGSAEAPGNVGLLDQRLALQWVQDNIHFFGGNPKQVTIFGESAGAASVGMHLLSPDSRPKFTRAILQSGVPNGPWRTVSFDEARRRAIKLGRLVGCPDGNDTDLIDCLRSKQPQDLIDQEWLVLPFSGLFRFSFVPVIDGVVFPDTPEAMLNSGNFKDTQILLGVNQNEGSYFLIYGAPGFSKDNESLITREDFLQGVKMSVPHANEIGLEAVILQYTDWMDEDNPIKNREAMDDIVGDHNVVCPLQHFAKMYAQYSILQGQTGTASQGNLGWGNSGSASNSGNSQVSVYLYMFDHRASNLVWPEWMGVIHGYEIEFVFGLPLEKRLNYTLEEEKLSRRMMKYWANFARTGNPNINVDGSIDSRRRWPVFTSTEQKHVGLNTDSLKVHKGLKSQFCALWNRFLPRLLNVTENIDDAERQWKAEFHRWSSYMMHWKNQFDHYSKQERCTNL

SMILES	Concentration [1] [µM]	Activity [2]
COP(=O)(CC(=O)N[C@@H](CCCCNS(=O)(=O)c1ccc2ccc3cccc4ccc1c2c34)C(N)=O)SC (some centres undefined)	40	inactive
COP(=O)(CC(=O)N[C@@H](CCCCNS(=O)(=O)c1ccc2ccc3cccc4ccc1c2c34)C(N)=O)OC	40	inactive
